This is an account of results in patent US12564193B2, “Isoxazoline-substituted benzamide derivative, and preparation method therefor and use thereof” (SHANDONG UNITED PESTICIDE INDUSTRY CO., LTD., priority 2020, dated 2026).

Type in all cases: in vivo
The test system of one test is Pieris rapae. As to the kind of experiment: Insecticidal activity, spray on pre-infested radish plants: Pieris rapae. The note with it: 144 h, read-out: fatality rate on Pieris rapae. The protocol: (§1) For determination of insecticidal activity, the test method was as follows: a test solution with a desired concentration was prepared by dissolving a test compound sample in a suitable solvent (the kind of solvent was such as acetone, methanol, DMSO, etc., and was selected according to its dissolving ability for the sample). The test cell was composed of a small open container with 12-15 day old radish plants inside. The plants were pre-infested by placing 30-40 pests located on one leaf cut from the cultivated plant on one leaf of the test plant (leaf cutting method). As the leaves dehydrated, the pests moved on the test plants. After the pre-infesting, the soil of the test cells was covered with a layer of sand.
(§2) The test method was as follows: the test was repeated for three times, and after spraying the formulated test compound, each test unit was allowed to dry for 1 hour, and then a black mesh cover was placed at the top. The test units were kept in a growth chamber at 25° C. and 70% relative humidity for 6 days. The mortality (fatality rate) of the insects was then visually assessed for each test unit, and the fatality rate was calculated as follows: […]

In a further test the test system is Cnaphalocrocis medinalis. As to the kind of experiment: Insecticidal activity, spray on pre-infested radish plants: Cnaphalocrocis medinalis. The note with it: 144 h, read-out: fatality rate on Cnaphalocrocis medinalis. The protocol:
as §1, §2

In the next test the test system is Spodoptera litura. As to the kind of experiment: Insecticidal activity, spray on pre-infested radish plants: Spodoptera litura. The note with it: 144 h, read-out: fatality rate on Spodoptera litura. The protocol: as §1, §2
The test system of test [1] is Frankliniella occidentalis. As to the kind of experiment: Insecticidal activity, spray on pre-infested radish plants: Frankliniella occidentalis. The note with it: for pest or weed control at 1 ppm / pest or weed control at 10 ppm / pest or weed control at 25 ppm: Frankliniella occidentalis, 144 h, read-out: fatality rate on Frankliniella occidentalis; for Fatality rate on Frankliniella occidentalis (%): Table 3. The protocol:
as §1
The test method was as follows: the test was repeated for three times, and after spraying the formulated test compound, each test unit was allowed to dry for 1 hour, and then a black mesh cover was placed at the top. The test units were kept in a growth chamber at 25° C. and 70% relative humidity for 6 days. The mortality (fatality rate) of the insects was then visually assessed for each test unit, and the fatality rate was calculated as follows:
[formula] (1) Test Results for the Control of Frankliniella occidentalis by Exemplary Example Compounds

The test system of another test is Chilo suppressalis. As to the kind of experiment: Insecticidal activity, spray on pre-infested radish plants: Chilo suppressalis. The note with it: for pest or weed control at 0.1 ppm / pest or weed control at 1 ppm / pest or weed control at 10 ppm: Chilo suppressalis, 144 h, read-out: fatality rate on Chilo suppressalis; for Fatality rate on Chilo suppressalis (%): Table 3. The protocol:
as §1, §2

Another test deals with Tetranychus cinnabarinus. As to the kind of experiment: Acaricidal activity, slide immersion of female adult mites: Tetranychus cinnabarinus. The note with it: read-out: fatality rate on Tetranychus cinnabarinus. The protocol:
The test method was as follows: a test solution with a desired concentration was prepared by dissolving a test compound sample in a suitable solvent (the kind of solvent was such as acetone, methanol, DMSO, etc., and was selected according to its dissolving ability for the sample). A double-sided adhesive tape was cut into 2-3 cm long pieces, the pieces were attached to one end of a microscope slide, paper pieces on the adhesive tape were removed using tweezers, female adult mites which were consistent in size, bright in body color and lively in action were selected using a zero-size brush pen, the backs of the female adult mites were adhered to the double-sided adhesive tape (note: the adhesion should not cover mite feet, mite whiskers and mouthparts), with 4 rows of mites adhered to each piece and 10 heads of the mites adhered to each row.
One end of the glass slide with the mites was immersed into a drug liquid, with slightly shaking for 5 seconds, and then the slide was taken out. The excess drug liquid around the mite body and is surroundings is quickly sucked off using absorbent paper. The slide was placed in the biochemical incubator described above, and the results were checked by using binoculars after 24 hours. The mites were slightly touched by using a brush pen, the mites with immobility in feet were considered to be dead, and the fatality rate was calculated. The fatality rate was calculated as follows: […]

For the next test, the system named is Plutella xylostella. As to the kind of experiment: Insecticidal activity, spray on pre-infested radish plants: Plutella xylostella. The note with it: for pest or weed control at 0.1 ppm / pest or weed control at 1 ppm / pest or weed control at 10 ppm: Plutella xylostella, 144 h, read-out: fatality rate on Plutella xylostella; for Fatality rate on Plutella xylostella (%): Table 3. The protocol:
as §1, §2

A further test concerns Mythimna separata. As to the kind of experiment: Insecticidal activity, spray on pre-infested radish plants: Mythimna separata. The note with it: for pest or weed control at 0.1 ppm / pest or weed control at 1 ppm / pest or weed control at 10 ppm: Mythimna separata, 144 h, read-out: fatality rate on Mythimna separata; for Fatality rate on Mythimna separata (%): Table 3. The protocol:
as §1, §2

[2] abbreviates: dose 1 ppm, immersion 5 seconds, checked after 24 hours.
[3] abbreviates: dose 10 ppm, immersion 5 seconds, checked after 24 hours.
The mark [4] stands for this setting: dose 25 ppm, immersion 5 seconds, checked after 24 hours.

Read-outs that look alike come from different tables or passages of the source.

For the compound `Cc1cc(C2=NOC(c3cc(Cl)c(F)c(Cl)c3)(C(F)(F)F)C2)ccc1C(=O)NCCc1cnccc1C(F)(F)F` (stereo not drawn) [Compound 17], the pest or weed control at 0.1 ppm with Pieris rapae, in the test on Cnaphalocrocis medinalis, with Spodoptera litura, in the test with Chilo suppressalis, with Plutella xylostella and in the test on Mythimna separata was greater than 80% each time. Besides, the pest or weed control at 1 ppm (in the test on Pieris rapae; in the test with Cnaphalocrocis medinalis; in the test on Spodoptera litura; in test [1]; in the test on Chilo suppressalis; with Tetranychus cinnabarinus (24 h)) was greater than 80% in each case. Besides, the pest or weed control at 1 ppm with Plutella xylostella and with Mythimna separata was greater than 80% in each case. The pest or weed control at 10 ppm (in the test on Pieris rapae; in the test with Cnaphalocrocis medinalis; in the test on Spodoptera litura; in test [1]; with Chilo suppressalis; in the test on Tetranychus cinnabarinus (24 h)) was greater than 80% in each case. The pest or weed control at 10 ppm in the test with Plutella xylostella and in the test with Mythimna separata was greater than 80% throughout. Besides, the pest or weed control at 25 ppm (in test [1]; with Tetranychus cinnabarinus (24 h)) was greater than 80% each time.

Regarding `Cc1cc(C2=NOC(c3cc(Cl)c(F)c(Cl)c3)(C(F)(F)F)C2)ccc1C(=O)NCCc1ccc(Cl)nc1` (stereo not drawn) [Compound 15], the pest or weed control at 0.1 ppm in the test on Pieris rapae, in the test on Cnaphalocrocis medinalis, in the test on Spodoptera litura, in the test on Chilo suppressalis, with Plutella xylostella and with Mythimna separata was greater than 80% in each case. Besides, the pest or weed control at 1 ppm (in the test with Pieris rapae; with Cnaphalocrocis medinalis; in the test on Spodoptera litura; in test [1]; in the test on Chilo suppressalis; in the test on Tetranychus cinnabarinus (24 h)) was greater than 80% each time. Moreover, the pest or weed control at 1 ppm in the test with Plutella xylostella and in the test with Mythimna separata was greater than 80% in each case. For the same compound, the pest or weed control at 10 ppm (in the test on Pieris rapae; with Cnaphalocrocis medinalis; in the test on Spodoptera litura; in test [1]; in the test with Chilo suppressalis; in the test on Tetranychus cinnabarinus (24 h)) was greater than 80% each time. Moreover, the pest or weed control at 10 ppm with Plutella xylostella and in the test on Mythimna separata was greater than 80% in each case. In addition, the pest or weed control at 25 ppm (in test [1]; in the test with Tetranychus cinnabarinus (24 h)) was greater than 80% in each case.

As to `Cc1cc(C2=NOC(c3cc(F)c(F)c(F)c3)(C(F)(F)F)C2)ccc1C(=O)NCc1cnc(Cl)cc1Cl` (stereo not drawn) [Compound 8], the pest or weed control at 0.1 ppm in the test with Pieris rapae (dose 0.1 ppm, spray, 6 days) is greater than 80%; in the test on Cnaphalocrocis medinalis (dose 0.1 ppm, spray, 6 days), greater than 80%; with Spodoptera litura (dose 0.1 ppm, spray, 6 days), greater than 80%; in the test on Chilo suppressalis (dose 0.1 ppm, spray, 6 days), greater than 80%; with Plutella xylostella (dose 0.1 ppm, spray, 6 days), greater than 80%; with Mythimna separata (dose 0.1 ppm, spray, 6 days), greater than 80%. In addition, the pest or weed control at 1 ppm in the test with Pieris rapae (dose 1 ppm, spray, 6 days) was greater than 80%; in the test with Cnaphalocrocis medinalis (dose 1 ppm, spray, 6 days), greater than 80%; in the test with Spodoptera litura (dose 1 ppm, spray, 6 days) it was greater than 80%; in test [1] (dose 1 ppm, spray, 6 days) it was greater than 80%; in the test on Chilo suppressalis (dose 1 ppm, spray, 6 days) it was greater than 80%; with Tetranychus cinnabarinus (setting [2]), greater than 80%. Moreover, the pest or weed control at 1 ppm in the test with Plutella xylostella (dose 1 ppm, spray, 6 days) was greater than 80%; with Mythimna separata (dose 1 ppm, spray, 6 days), greater than 80%. For the same compound, the pest or weed control at 10 ppm is greater than 80% in the test with Pieris rapae (dose 10 ppm, spray, 6 days); greater than 80% in the test with Cnaphalocrocis medinalis (dose 10 ppm, spray, 6 days); greater than 80% with Spodoptera litura (dose 10 ppm, spray, 6 days); greater than 80% in test [1] (dose 10 ppm, spray, 6 days); greater than 80% in the test on Chilo suppressalis (dose 10 ppm, spray, 6 days); greater than 80% with Tetranychus cinnabarinus (setting [3]). Also, the pest or weed control at 10 ppm in the test with Plutella xylostella (dose 10 ppm, spray, 6 days) is greater than 80%; in the test on Mythimna separata (dose 10 ppm, spray, 6 days) it was greater than 80%. The pest or weed control at 25 ppm in test [1] (dose 25 ppm, spray, 6 days) was greater than 80%; in the test on Tetranychus cinnabarinus (setting [4]), greater than 80%.

As for `Cc1cc(C2=NOC(c3cc(F)c(F)c(F)c3)(C(F)(F)F)C2)ccc1C(=O)NCc1ncccc1Cl` (stereo not drawn) [Compound 14], the pest or weed control at 0.1 ppm with Pieris rapae (dose 0.1 ppm, spray, 6 days) is greater than 80%; with Cnaphalocrocis medinalis (dose 0.1 ppm, spray, 6 days) it was greater than 80%; in the test with Spodoptera litura (dose 0.1 ppm, spray, 6 days), greater than 80%; in the test with Chilo suppressalis (dose 0.1 ppm, spray, 6 days) it was greater than 80%; in the test with Plutella xylostella (dose 0.1 ppm, spray, 6 days), greater than 80%; in the test with Mythimna separata (dose 0.1 ppm, spray, 6 days), greater than 80%. For the same compound, the pest or weed control at 1 ppm was greater than 80% with Pieris rapae (dose 1 ppm, spray, 6 days); greater than 80% in the test with Cnaphalocrocis medinalis (dose 1 ppm, spray, 6 days); greater than 80% in the test with Spodoptera litura (dose 1 ppm, spray, 6 days); greater than 80% in test [1] (dose 1 ppm, spray, 6 days); greater than 80% with Chilo suppressalis (dose 1 ppm, spray, 6 days); greater than 80% with Tetranychus cinnabarinus (setting [2]). In addition, the pest or weed control at 1 ppm in the test on Plutella xylostella (dose 1 ppm, spray, 6 days) is greater than 80%; in the test on Mythimna separata (dose 1 ppm, spray, 6 days), greater than 80%. Moreover, the pest or weed control at 10 ppm in the test on Pieris rapae (dose 10 ppm, spray, 6 days) is greater than 80%; in the test with Cnaphalocrocis medinalis (dose 10 ppm, spray, 6 days), greater than 80%; in the test on Spodoptera litura (dose 10 ppm, spray, 6 days), greater than 80%; in test [1] (dose 10 ppm, spray, 6 days) it was greater than 80%; in the test with Chilo suppressalis (dose 10 ppm, spray, 6 days), greater than 80%; in the test on Tetranychus cinnabarinus (setting [3]), greater than 80%. Further, the pest or weed control at 10 ppm was greater than 80% in the test on Plutella xylostella (dose 10 ppm, spray, 6 days) and greater than 80% with Mythimna separata (dose 10 ppm, spray, 6 days). For the same compound, the pest or weed control at 25 ppm in test [1] (dose 25 ppm, spray, 6 days) was greater than 80%; with Tetranychus cinnabarinus (setting [4]) it was greater than 80%.

In the case of `Cc1cc(C2=NOC(c3cc(Cl)cc(Cl)c3)(C(F)(F)F)C2)ccc1C(=O)NCc1ccc(Cl)nc1` (stereo not drawn) [CK1, reference compound], the “Fatality rate on Frankliniella occidentalis (%)” value in test [1] (1 ppm) is reported as 0%; in test [1] (10 ppm), 40%; in test [1] (25 ppm), 80%. In addition, the “Fatality rate on Chilo suppressalis (%)” value is 0% with Chilo suppressalis (0.1 ppm), 50% in the test with Chilo suppressalis (1 ppm) and 100% in the test with Chilo suppressalis (10 ppm). Further, the results for the “Fatality rate on Plutella xylostella (%)” value with Plutella xylostella (0.1 ppm), in the test with Plutella xylostella (1 ppm) and in the test on Plutella xylostella (10 ppm) were 15%, 80% and 100%, respectively. Besides, the entries for the “Fatality rate on Mythimna separata (%)” value in the test on Mythimna separata (0.1 ppm), with Mythimna separata (1 ppm) and in the test on Mythimna separata (10 ppm) were 10%, 80% and 100%, respectively.
